This is an account of results in US11566057B2, “Long-acting co-agonists of the glucagon and GLP-1 receptors” (Merck Sharp & Dohme Corp., priority 2017, dated 2023).

For one assay, the target named is T1, human GCGR (Homo sapiens, UniProt P47871).
T1 construct: expressed in transfected cells; growth medium holds Blasticidin and Hygromycin
Briefly: cAMP activity assay at the Glucagon receptor (GCGR). The following applies: for hGCGR/hGLP1R (hTone): ratio of GCGR EC50 to GLP1R EC50. The assay is classed as cell-based. In short, it runs like this:
(§1)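 Peptides serially diluted from DMSO (10 points) and added to frozen-stock cells bearing human GLP1R (10,000 cells/well) or GCGR (30,000 cells/well), 1 h at RT, dark. EC50 by four-parameter logistic fit of HitHunter cAMPXS luminescence, read following overnight RT incubation.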

Another assay concerns the target T2, human GLP1R (Homo sapiens, UniProt P43220).
T2 construct: expressed in transfected cells; growth medium holds Blasticidin and Hygromycin
The assay can be described thus: cAMP activity assay at the GLP-1 receptor (GLP1R). The format is cell-based. In short, it runs like this:
as §1

[1] abbreviates: summary statement: EC50 at each of the glucagon and GLP-1 receptors, read-out: EC50 at the glucagon receptor.
Where [2] appears, read: summary statement: EC50 at each of the glucagon and GLP-1 receptors, read-out: EC50 at the GLP-1 receptor.
Where [3] appears, read: cells expressing human GLP1R, cAMP production, buffer with or without 20% human serum (not stated which), read-out: GLP1R EC50 human.

pEC50: −log10 of the molar value. Where two headings read alike, the source gives them in different places. Numbered stars: 1 amine (or outer) side, 2 acyl side, 3 side chain; on linkers, the order of the positions; unused ones are H or OH. Square brackets hold non-standard residues; d marks the D form. Side chains are listed from the residue outwards. Peptide text beside a SMILES is read from it. * marks the point of attachment. C20 diacid = O=C(O)CCCCCCCCCCCCCCCCCCC(=O)*; Phe(4-CH2NH2) = NCc1ccc(C[C@H](N)C(=O)O)cc1; C18 diacid = O=C(O)CCCCCCCCCCCCCCCCC(=O)*; αMeW = C[C@](N)(Cc1c[nH]c2ccccc12)C(=O)O; γGlu = O=C(O)[C@H](CCC(=O)[*:2])N[*:1]; Met(O2) = CS(=O)(=O)CC[C@H](N)C(=O)O; αMeD = C[C@](N)(CC(=O)O)C(=O)O; AEEA = NCCOCCOCC(=O)O; Aib = CC(C)(N)C(=O)O

T2 sequence (P43220 24-463): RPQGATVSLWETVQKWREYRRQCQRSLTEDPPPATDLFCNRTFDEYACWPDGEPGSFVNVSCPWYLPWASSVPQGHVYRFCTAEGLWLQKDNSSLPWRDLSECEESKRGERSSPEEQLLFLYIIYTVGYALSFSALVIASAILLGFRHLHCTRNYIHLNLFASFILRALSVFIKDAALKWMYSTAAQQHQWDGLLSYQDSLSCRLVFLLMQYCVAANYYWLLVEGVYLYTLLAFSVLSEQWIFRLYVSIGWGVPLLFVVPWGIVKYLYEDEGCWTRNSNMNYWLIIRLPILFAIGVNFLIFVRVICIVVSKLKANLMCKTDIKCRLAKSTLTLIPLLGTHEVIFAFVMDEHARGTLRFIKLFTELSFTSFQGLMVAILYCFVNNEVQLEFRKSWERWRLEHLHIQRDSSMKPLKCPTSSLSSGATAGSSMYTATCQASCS
T1 sequence (P47871 26-477): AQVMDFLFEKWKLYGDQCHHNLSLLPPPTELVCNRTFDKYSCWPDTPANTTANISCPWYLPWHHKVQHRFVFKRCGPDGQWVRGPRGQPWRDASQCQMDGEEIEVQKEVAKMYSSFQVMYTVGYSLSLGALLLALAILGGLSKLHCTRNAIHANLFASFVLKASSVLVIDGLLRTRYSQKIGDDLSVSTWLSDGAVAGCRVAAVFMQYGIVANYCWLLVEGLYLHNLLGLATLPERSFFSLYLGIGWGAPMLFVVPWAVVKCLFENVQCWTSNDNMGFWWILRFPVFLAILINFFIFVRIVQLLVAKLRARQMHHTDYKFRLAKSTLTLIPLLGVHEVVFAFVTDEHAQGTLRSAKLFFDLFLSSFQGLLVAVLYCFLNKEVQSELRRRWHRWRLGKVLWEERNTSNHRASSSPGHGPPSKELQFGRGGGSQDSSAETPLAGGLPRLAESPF

Turning to `CC(C)C[C@H](NC(=O)[C@H](Cc1ccc(O)cc1)NC(=O)[C@H](CCCCN)NC(=O)[C@H](CO)NC(=O)[C@H](Cc1ccc(O)cc1)NC(=O)[C@H](CC(=O)O)NC(=O)[C@H](CO)NC(=O)[C@@H](NC(=O)[C@H](Cc1ccccc1)NC(=O)[C@@H](NC(=O)CNC(=O)[C@H](CCC(N)=O)NC(=O)C(C)(C)NC(=O)[C@@H](N)Cc1c[nH]cn1)[C@@H](C)O)[C@@H](C)O)C(=O)N[C@@H](CC(=O)O)C(=O)N[C@@H](C)C(=O)N[C@@H](CCCNC(=N)N)C(=O)N[C@@H](C)C(=O)N[C@@H](C)C(=O)N[C@@H](CCCCNC(=O)COCCOCCNC(=O)CC[C@H](NC(=O)CCCCCCCCCCCCCCCCCCC(=O)O)C(=O)O)C(=O)N[C@@H](CC(=O)O)C(=O)N[C@@H](Cc1ccccc1)C(=O)N[C@H](C(=O)N[C@@H](CCC(N)=O)C(=O)N[C@@H](Cc1c[nH]c2ccccc12)C(=O)N[C@@H](CC(C)C)C(=O)N[C@@H](CCS(C)(=O)=O)C(=O)N[C@@](C)(CC(=O)O)C(=O)N[C@H](C(N)=O)[C@@H](C)O)C(C)C` [TP629] (H-H[Aib]QGTFTSDYSKYLDARAAK([AEEA-γGlu-C20 diacid])DFVQWL[Met(O2)][αMeD]T-NH2; N-terminus assumed), the “hGCGR/hGLP1R (hTone)” value at human GCGR is given as 1.4. Moreover, the pEC50 at human GCGR (setting [1]) and on human GLP1R (setting [2]) was more than 8.30 each time.

Regarding `CC(C)C[C@H](NC(=O)[C@H](Cc1ccc(O)cc1)NC(=O)[C@H](CCCCN)NC(=O)[C@H](CO)NC(=O)[C@H](Cc1ccc(O)cc1)NC(=O)[C@H](CC(=O)O)NC(=O)[C@H](CO)NC(=O)[C@@H](NC(=O)[C@H](Cc1ccccc1)NC(=O)[C@@H](NC(=O)CNC(=O)[C@H](CCC(N)=O)NC(=O)C(C)(C)NC(=O)[C@@H](N)Cc1c[nH]cn1)[C@@H](C)O)[C@@H](C)O)C(=O)N[C@@H](CC(=O)O)C(=O)N[C@@H](C)C(=O)N[C@@H](CCCNC(=N)N)C(=O)N[C@@H](C)C(=O)N[C@@H](C)C(=O)N[C@@H](CCCCNC(=O)COCCOCCNC(=O)COCCOCCNC(=O)CC[C@H](NC(=O)CCCCCCCCCCCCCCCCC(=O)O)C(=O)O)C(=O)N[C@@H](CC(=O)O)C(=O)N[C@@H](Cc1ccccc1)C(=O)N[C@H](C(=O)N[C@@H](CCC(N)=O)C(=O)N[C@@](C)(Cc1c[nH]c2ccccc12)C(=O)N[C@@H](CC(C)C)C(=O)N[C@@H](CCS(C)(=O)=O)C(=O)N[C@@H](CC(=O)O)C(=O)N[C@H](C(N)=O)[C@@H](C)O)C(C)C` [TP631] (H-H[Aib]QGTFTSDYSKYLDARAAK([AEEA-AEEA-γGlu-C18 diacid])DFVQ[αMeW]L[Met(O2)]DT-NH2; N-terminus assumed), the “hGCGR/hGLP1R (hTone)” value at human GCGR stood at 1.3. The pEC50 on human GCGR (setting [1]) and at human GLP1R (setting [2]) was more than 8.30 throughout.

In the case of `CC(C)C[C@H](NC(=O)[C@H](Cc1ccc(O)cc1)NC(=O)[C@H](CCCCN)NC(=O)[C@H](CO)NC(=O)[C@H](Cc1ccc(O)cc1)NC(=O)[C@H](CC(=O)O)NC(=O)[C@H](CO)NC(=O)[C@@H](NC(=O)[C@H](Cc1ccccc1)NC(=O)[C@@H](NC(=O)CNC(=O)[C@H](CCC(N)=O)NC(=O)C(C)(C)NC(=O)[C@@H](N)Cc1c[nH]cn1)[C@@H](C)O)[C@@H](C)O)C(=O)N[C@@H](CC(=O)O)C(=O)N[C@@H](C)C(=O)N[C@@H](CCCNC(=N)N)C(=O)N[C@@H](C)C(=O)N[C@@H](C)C(=O)N[C@@H](CCC(N)=O)C(=O)N[C@@H](Cc1ccc(CNC(=O)COCCOCCNC(=O)CC[C@H](NC(=O)CCCCCCCCCCCCCCCCC(=O)O)C(=O)O)cc1)C(=O)N[C@@H](Cc1ccccc1)C(=O)N[C@H](C(=O)N[C@@H](CCC(N)=O)C(=O)N[C@@H](Cc1c[nH]c2ccccc12)C(=O)N[C@@H](CC(C)C)C(=O)N[C@@H](CC(C)C)C(=O)N[C@@H](CC(=O)O)C(=O)N[C@H](C(N)=O)[C@@H](C)O)C(C)C` [TP633] (H-H[Aib]QGTFTSDYSKYLDARAAQ[Phe(4-CH2NH2)]([AEEA-γGlu-C18 diacid])FVQWLLDT-NH2; N-terminus assumed), the “hGCGR/hGLP1R (hTone)” value at human GCGR was 0.7. The pEC50 on human GCGR (setting [1]) was more than 8.30; at human GLP1R (setting [3]) it was 9.72; on human GLP1R (setting [2]) it was more than 8.30.

Regarding `CC(C)C[C@H](NC(=O)[C@H](Cc1ccc(O)cc1)NC(=O)[C@H](CCCCN)NC(=O)[C@H](CO)NC(=O)[C@H](Cc1ccc(O)cc1)NC(=O)[C@H](CC(=O)O)NC(=O)[C@H](CO)NC(=O)[C@@H](NC(=O)[C@H](Cc1ccccc1)NC(=O)[C@@H](NC(=O)CNC(=O)[C@H](CCC(N)=O)NC(=O)C(C)(C)NC(=O)[C@@H](N)Cc1c[nH]cn1)[C@@H](C)O)[C@@H](C)O)C(=O)N[C@@H](CC(=O)O)C(=O)N[C@@H](C)C(=O)N[C@@H](CCCNC(=N)N)C(=O)N[C@@H](C)C(=O)N[C@@H](C)C(=O)N[C@@H](CCC(N)=O)C(=O)N[C@@H](Cc1ccc(CNC(=O)COCCOCCNC(=O)COCCOCCNC(=O)CC[C@H](NC(=O)CCCCCCCCCCCCCCCCC(=O)O)C(=O)O)cc1)C(=O)N[C@@H](Cc1ccccc1)C(=O)N[C@H](C(=O)N[C@@H](CCC(N)=O)C(=O)N[C@@H](Cc1c[nH]c2ccccc12)C(=O)N[C@@H](CC(C)C)C(=O)N[C@@H](CCS(C)(=O)=O)C(=O)N[C@@](C)(CC(=O)O)C(=O)N[C@H](C(N)=O)[C@@H](C)O)C(C)C` [TP634] (H-H[Aib]QGTFTSDYSKYLDARAAQ[Phe(4-CH2NH2)]([AEEA-AEEA-γGlu-C18 diacid])FVQWL[Met(O2)][αMeD]T-NH2), the “hGCGR/hGLP1R (hTone)” value at human GCGR is given as 1.6. Also, the pEC50 on human GCGR (setting [1]) and on human GLP1R (setting [2]) was more than 8.30 throughout.

As for `CC(C)C[C@H](NC(=O)[C@H](Cc1ccc(O)cc1)NC(=O)[C@H](CCCCN)NC(=O)[C@H](CO)NC(=O)[C@H](Cc1ccc(O)cc1)NC(=O)[C@H](CC(=O)O)NC(=O)[C@H](CO)NC(=O)[C@@H](NC(=O)[C@H](Cc1ccccc1)NC(=O)[C@@H](NC(=O)CNC(=O)[C@H](CCC(N)=O)NC(=O)C(C)(C)NC(=O)[C@@H](N)Cc1c[nH]cn1)[C@@H](C)O)[C@@H](C)O)C(=O)N[C@@H](CC(=O)O)C(=O)N[C@@H](C)C(=O)N[C@@H](CCCNC(=N)N)C(=O)N[C@@H](C)C(=O)N[C@@H](C)C(=O)N[C@@H](Cc1ccc(CNC(=O)COCCOCCNC(=O)CC[C@H](NC(=O)CCCCCCCCCCCCCCCCC(=O)O)C(=O)O)cc1)C(=O)N[C@@H](CC(=O)O)C(=O)N[C@@H](Cc1ccccc1)C(=O)N[C@H](C(=O)N[C@@H](CCC(N)=O)C(=O)N[C@@H](Cc1c[nH]c2ccccc12)C(=O)N[C@@H](CC(C)C)C(=O)N[C@@H](CC(C)C)C(=O)N[C@@H](CC(=O)O)C(=O)N[C@H](C(N)=O)[C@@H](C)O)C(C)C` [TP635] (H-H[Aib]QGTFTSDYSKYLDARAA[Phe(4-CH2NH2)]([AEEA-γGlu-C18 diacid])DFVQWLLDT-NH2), the pEC50 on human GCGR (cells expressing human GCGR, cAMP production, buffer with or without 20% human serum (not stated which), read-out: GCGR EC50 human) was 9.34; at human GCGR (setting [1]), more than 8.30; at human GLP1R (setting [2]) it was more than 8.30. Moreover, the “hGCGR/hGLP1R (hTone)” value at human GCGR turned out to be 0.2.

In the case of `CC(C)C[C@H](NC(=O)[C@H](Cc1ccc(O)cc1)NC(=O)[C@H](CCCCN)NC(=O)[C@H](CO)NC(=O)[C@H](Cc1ccc(O)cc1)NC(=O)[C@H](CC(=O)O)NC(=O)[C@H](CO)NC(=O)[C@@H](NC(=O)[C@H](Cc1ccccc1)NC(=O)[C@@H](NC(=O)CNC(=O)[C@H](CCC(N)=O)NC(=O)C(C)(C)NC(=O)[C@@H](N)Cc1c[nH]cn1)[C@@H](C)O)[C@@H](C)O)C(=O)N[C@@H](CC(=O)O)C(=O)N[C@@H](C)C(=O)N[C@@H](CCCNC(=N)N)C(=O)N[C@@H](C)C(=O)N[C@@H](C)C(=O)N[C@@H](Cc1ccc(CNC(=O)COCCOCCNC(=O)COCCOCCNC(=O)CC[C@H](NC(=O)CCCCCCCCCCCCCCCCC(=O)O)C(=O)O)cc1)C(=O)N[C@@H](CC(=O)O)C(=O)N[C@@H](Cc1ccccc1)C(=O)N[C@H](C(=O)N[C@@H](CCC(N)=O)C(=O)N[C@@H](Cc1c[nH]c2ccccc12)C(=O)N[C@@H](CC(C)C)C(=O)N[C@@H](CCS(C)(=O)=O)C(=O)N[C@@](C)(CC(=O)O)C(=O)N[C@H](C(N)=O)[C@@H](C)O)C(C)C` [TP636] (H-H[Aib]QGTFTSDYSKYLDARAA[Phe(4-CH2NH2)]([AEEA-AEEA-γGlu-C18 diacid])DFVQWL[Met(O2)][αMeD]T-NH2; N-terminus assumed), the “hGCGR/hGLP1R (hTone)” value on human GCGR came to 0.2. Moreover, the pEC50 was more than 8.30 on human GCGR (setting [1]), 9.28 on human GLP1R (setting [3]) and more than 8.30 on human GLP1R (setting [2]).

For `CC(C)C[C@H](NC(=O)[C@H](Cc1ccc(O)cc1)NC(=O)[C@H](CCCCN)NC(=O)[C@H](CO)NC(=O)[C@H](Cc1ccc(O)cc1)NC(=O)[C@H](CC(=O)O)NC(=O)[C@H](CO)NC(=O)[C@@H](NC(=O)[C@H](Cc1ccccc1)NC(=O)[C@@H](NC(=O)CNC(=O)[C@H](CCC(N)=O)NC(=O)C(C)(C)NC(=O)[C@@H](N)Cc1c[nH]cn1)[C@@H](C)O)[C@@H](C)O)C(=O)N[C@@H](CC(=O)O)C(=O)N[C@@H](C)C(=O)N[C@@H](CCCNC(=N)N)C(=O)N[C@@H](C)C(=O)N[C@@H](C)C(=O)N[C@@H](CCC(N)=O)C(=O)N[C@@H](CC(=O)O)C(=O)N[C@@H](Cc1ccccc1)C(=O)N[C@H](C(=O)N[C@@H](CCCCNC(=O)COCCOCCNC(=O)CC[C@H](NC(=O)CCCCCCCCCCCCCCCCC(=O)O)C(=O)O)C(=O)N[C@@H](Cc1c[nH]c2ccccc12)C(=O)N[C@@H](CC(C)C)C(=O)N[C@@H](CCS(C)(=O)=O)C(=O)N[C@@H](CC(=O)O)C(=O)N[C@H](C(N)=O)[C@@H](C)O)C(C)C` [TP637] (H-H[Aib]QGTFTSDYSKYLDARAAQDFVK([AEEA-γGlu-C18 diacid])WL[Met(O2)]DT-NH2; N-terminus assumed), the “hGCGR/hGLP1R (hTone)” value on human GCGR came out at 1.8. Also, the pEC50 on human GCGR (setting [1]) and on human GLP1R (setting [2]) was more than 8.30 in each case.

What is called pEC50 is −log10 of the EC50, conventionally taken in molar units.
